Test results from ChEMBL document CHEMBL2396653, “Synthesis and antimycobacterial evaluation of N-substituted 5-chloropyrazine-2-carboxamides” (Bioorg Med Chem Lett, 2013).
Values after ≈ are worked out from the molar mass of the structure shown. Active and inactive are the calls of the source. The calls are words filed in the database; no cut-off is given here.

Legend:
[1] = tested on: Mycobacterium kansasii; test: Antimycobacterial activity against Mycobacterium kansasii CNCTC My 235/80 assessed as growth inhibition after 14 days by microdilution method; assay type: functional; settings: CNCTC My 235/80, 336 h
[2] = tested on: Mycobacterium avium; test: Antimycobacterial activity against Mycobacterium avium CNCTC My 152/73 assessed as growth inhibition after 14 days by microdilution method; assay type: functional; settings: CNCTC My 152/73, 336 h
[3] = tested on: Mycobacterium tuberculosis; test: Antimycobacterial activity against Mycobacterium tuberculosis H37Rv assessed as growth inhibition after 14 days by microdilution method; assay type: functional; settings: 336 h
[4] = tested on: Mycobacterium avium; test: Antimycobacterial activity against Mycobacterium avium CNCTC My 80/72 assessed as growth inhibition after 14 days by microdilution method; assay type: functional; settings: CNCTC My 80/72, 336 h
[5] = tested on: Lichtheimia corymbifera; test: Antifungal activity against Absidia corymbifera 272 assessed as growth inhibition after 24 to 48 hrs by microbroth dilution method; assay type: functional, organism-based
[6] = tested on: Pseudomonas aeruginosa; test: Antibacterial activity against Pseudomonas aeruginosa CCM 1961 assessed as growth inhibition after 24 to 48 hrs by microbroth dilution method; assay type: functional, organism-based
[7] = tested on: Staphylococcus aureus; test: Antibacterial activity against methicillin-resistant Staphylococcus aureus H 5996/08 clinical isolate assessed as growth inhibition after 24 to 48 hrs by microbroth dilution method; assay type: functional, organism-based
[8] = tested on: Escherichia coli; test: Antibacterial activity against Escherichia coli CCM 4517 assessed as growth inhibition after 24 to 48 hrs by microbroth dilution method; assay type: functional, organism-based
[9] = tested on: Staphylococcus epidermidis; test: Antibacterial activity against Staphylococcus epidermidis H 6966/08 clinical isolate assessed as growth inhibition after 24 to 48 hrs by microbroth dilution method; assay type: functional, organism-based
[10] = tested on: Klebsiella pneumoniae; test: Antibacterial activity against Klebsiella pneumoniae D 11750/08 clinical isolate assessed as growth inhibition after 24 to 48 hrs by microbroth dilution method; assay type: functional, organism-based
[11] = tested on: Staphylococcus aureus; test: Antibacterial activity against Staphylococcus aureus CCM 4516/08 assessed as growth inhibition after 24 to 48 hrs by microbroth dilution method; assay type: functional, organism-based
[12] = tested on: Candida albicans; test: Antifungal activity against Candida albicans ATCC 44859 assessed as growth inhibition after 24 to 48 hrs by microbroth dilution method; assay type: functional, organism-based
[13] = tested on: Enterococcus; test: Antibacterial activity against Enterococcus sp. J 14365/08 clinical isolate assessed as growth inhibition after 24 to 48 hrs by microbroth dilution method; assay type: functional, organism-based
[14] = tested on: Trichophyton mentagrophytes; test: Antifungal activity against Trichophyton mentagrophytes 445 assessed as growth inhibition after 72 to 120 hrs by microbroth dilution method; assay type: functional, organism-based
[15] = tested on: Nakaseomyces glabratus; test: Antifungal activity against Candida glabrata 20/I assessed as growth inhibition after 24 to 48 hrs by microbroth dilution method; assay type: functional, organism-based
[16] = tested on: Aspergillus fumigatus; test: Antifungal activity against Aspergillus fumigatus 231 assessed as growth inhibition after 24 to 48 hrs by microbroth dilution method; assay type: functional, organism-based
[17] = tested on: Klebsiella pneumoniae; test: Antibacterial activity against ESBL-positive Klebsiella pneumoniae J 14368/08 clinical isolate assessed as growth inhibition after 24 to 48 hrs by microbroth dilution method; assay type: functional, organism-based
[18] = tested on: Candida tropicalis; test: Antifungal activity against Candida tropicalis 156 assessed as growth inhibition after 24 to 48 hrs by microbroth dilution method; assay type: functional, organism-based
[19] = tested on: Pichia kudriavzevii; test: Antifungal activity against Candida krusei E28 assessed as growth inhibition after 24 to 48 hrs by microbroth dilution method; assay type: functional, organism-based
[20] = Stability of the compound at pH 7; assay type: physicochemical; settings: buffer
[21] = Lipophilicity, log K of the compound by HPLC analysis; assay type: physicochemical
[22] = tested on: Trichosporon asahii; test: Antifungal activity against Trichosporon asahii 1188 assessed as growth inhibition after 24 to 48 hrs by microbroth dilution method; assay type: functional, organism-based

SMILES	MIC [1]	MIC [2]	MIC [3]	MIC [4]	growth inhibition (GI) [5]	growth inhibition (GI) [6]	growth inhibition (GI) [7]	growth inhibition (GI) [8]	growth inhibition (GI) [9]	growth inhibition (GI) [10]	growth inhibition (GI) [11]	growth inhibition (GI) [12]	growth inhibition (GI) [13]	growth inhibition (GI) [14]	growth inhibition (GI) [15]	growth inhibition (GI) [16]	growth inhibition (GI) [17]	growth inhibition (GI) [18]	growth inhibition (GI) [19]	growth inhibition (GI) [22]	other results
NNC(=O)c1ccncc1 [ISONIAZID]	12.5 µg/mL (≈ 91.1 µM)	6.25 µg/mL (≈ 45.6 µM)	1.56 µg/mL (≈ 11.4 µM)	25 µg/mL (≈ 182 µM)																	
O=C(Nc1ccccc1F)c1cnc(Cl)cn1	12.5 µg/mL (≈ 49.7 µM)	> 100 µg/mL	6.25 µg/mL (≈ 24.8 µM)	> 100 µg/mL	inactive	inactive	inactive	inactive	inactive	inactive	inactive	inactive	inactive	inactive	inactive	inactive	inactive	inactive	inactive	inactive	Stability [20]: Stable; log K [21]: 0.4903
O=C(Nc1cccc([N+](=O)[O-])c1)c1cnc(Cl)cn1		> 100 µg/mL	3.13 µg/mL (≈ 11.2 µM)	> 100 µg/mL	inactive	inactive	inactive	inactive	inactive	inactive	inactive	inactive	inactive	inactive	inactive	inactive	inactive	inactive	inactive	inactive	Stability [20]: Stable; log K [21]: 0.3443
COc1ccc(NC(=O)c2cnc(Cl)cn2)c(OC)c1	> 100 µg/mL	> 100 µg/mL	> 100 µg/mL	> 100 µg/mL	inactive	inactive	inactive	inactive	inactive	inactive	inactive	inactive	inactive	inactive	inactive	inactive	inactive	inactive	inactive	inactive	Stability [20]: Stable; log K [21]: 0.5791
O=C(NCc1cccc(Cl)c1)c1cnc(Cl)cn1	50 µg/mL (≈ 177 µM)	> 100 µg/mL	25 µg/mL (≈ 88.6 µM)	> 100 µg/mL	inactive	inactive	inactive	inactive	inactive	inactive	inactive	inactive	inactive	inactive	inactive	inactive	inactive	inactive	inactive	inactive	Stability [20]: Stable; log K [21]: 0.4229
O=C(Nc1cccc(Cl)c1)c1cnc(Cl)cn1	25 µg/mL (≈ 93.2 µM)	25 µg/mL (≈ 93.2 µM)	3.13 µg/mL (≈ 11.7 µM)	25 µg/mL (≈ 93.2 µM)	inactive	inactive	inactive	inactive	inactive	inactive	inactive	inactive	inactive	inactive	inactive	inactive	inactive	inactive	inactive	inactive	Stability [20]: Stable; log K [21]: 0.5873
Cc1ccc(CNC(=O)c2cnc(Cl)cn2)cc1	3.13 µg/mL (≈ 12 µM)	> 100 µg/mL	25 µg/mL (≈ 95.5 µM)	> 100 µg/mL	inactive	inactive	inactive	inactive	inactive	inactive	inactive	inactive	inactive	inactive	inactive	inactive	inactive	inactive	inactive	inactive	Stability [20]: Stable; log K [21]: 0.4199
O=C(NCc1cccc([N+](=O)[O-])c1)c1cnc(Cl)cn1	12.5 µg/mL (≈ 42.7 µM)	> 100 µg/mL	> 100 µg/mL	> 100 µg/mL	inactive	inactive	inactive	inactive	inactive	inactive	inactive	inactive	inactive	inactive	inactive	inactive	inactive	inactive	inactive	inactive	Stability [20]: Stable; log K [21]: 0.1189
NC(=O)c1cnccn1 [PYRAZINAMIDE]	> 100 µg/mL	> 100 µg/mL	12.5 µg/mL (≈ 102 µM)	> 100 µg/mL																	
O=C(Nc1ccccc1Cl)c1cnc(Cl)cn1		> 100 µg/mL	0.78 µg/mL (≈ 2.91 µM)	> 100 µg/mL	inactive	inactive	inactive	inactive	inactive	inactive	inactive	inactive	inactive	inactive	inactive	inactive	inactive	inactive	inactive	inactive	Stability [20]: Stable; log K [21]: 0.8193
O=C(NCc1ccccc1Cl)c1cnc(Cl)cn1	6.25 µg/mL (≈ 22.2 µM)	> 100 µg/mL	25 µg/mL (≈ 88.6 µM)	> 100 µg/mL	inactive	inactive	inactive	inactive	inactive	inactive	inactive	inactive	inactive	inactive	inactive	inactive	inactive	inactive	inactive	inactive	Stability [20]: Stable; log K [21]: 0.4168
OC(Cn1cncn1)(Cn1cncn1)c1ccc(F)cc1F					Active							Active		Active	Active	Active		Active	Active	Active	
